Measured values reported in US6608086B2, “Dihydropyridines and new uses thereof” (Synaptic Pharmaceutical Corporation, priority 1993, dated 2003).

Columns and labels:
[1] = target: T1, α1B Human Adrenergic Receptor (Homo sapiens, UniProt P35368); experiment: Radioligand binding, [3H]prazosin, cloned human α1B adrenergic receptor; details: cloned human receptor, LM(tk-) cell membranes, mean, read-out: PKi alpha-1 1b (converted)
T1 construct: The entire coding region of α1B (1563 bp); expressed in transfected cells
T1 sequence (P35368 1-520): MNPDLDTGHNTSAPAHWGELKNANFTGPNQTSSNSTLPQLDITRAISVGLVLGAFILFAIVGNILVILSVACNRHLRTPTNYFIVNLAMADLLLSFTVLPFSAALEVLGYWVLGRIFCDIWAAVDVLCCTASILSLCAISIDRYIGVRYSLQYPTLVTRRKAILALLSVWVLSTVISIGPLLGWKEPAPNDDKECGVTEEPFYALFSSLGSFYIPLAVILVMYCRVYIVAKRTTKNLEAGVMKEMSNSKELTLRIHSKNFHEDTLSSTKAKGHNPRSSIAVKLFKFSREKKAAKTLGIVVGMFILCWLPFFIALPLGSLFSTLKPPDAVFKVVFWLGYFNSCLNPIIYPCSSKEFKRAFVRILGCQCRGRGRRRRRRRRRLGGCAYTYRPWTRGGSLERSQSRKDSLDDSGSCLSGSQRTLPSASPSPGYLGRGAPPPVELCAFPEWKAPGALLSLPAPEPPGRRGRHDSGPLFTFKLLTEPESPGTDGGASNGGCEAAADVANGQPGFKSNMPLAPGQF
Procedure, shortened: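 Membranes from stably transfected LM(tk−) cells, resuspended in 50 mM Tris-HCl, 1 mM MgCl2, 0.1% ascorbic acid, pH 7.5, were incubated with 0.5 nM [3H]prazosin for 20 min at 37° C. Nonspecific binding defined with 10 μM phentolamine; bound ligand separated by GF/B filtration.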

α2A receptor = target: T2, α2A receptor (Homo sapiens, UniProt P08913); experiment: Competition binding, [3H]rauwolscine, human α2A receptor
T2 construct: host or cells: LM(tk-) cells, line L-α2A
T2 sequence (P08913 1-465): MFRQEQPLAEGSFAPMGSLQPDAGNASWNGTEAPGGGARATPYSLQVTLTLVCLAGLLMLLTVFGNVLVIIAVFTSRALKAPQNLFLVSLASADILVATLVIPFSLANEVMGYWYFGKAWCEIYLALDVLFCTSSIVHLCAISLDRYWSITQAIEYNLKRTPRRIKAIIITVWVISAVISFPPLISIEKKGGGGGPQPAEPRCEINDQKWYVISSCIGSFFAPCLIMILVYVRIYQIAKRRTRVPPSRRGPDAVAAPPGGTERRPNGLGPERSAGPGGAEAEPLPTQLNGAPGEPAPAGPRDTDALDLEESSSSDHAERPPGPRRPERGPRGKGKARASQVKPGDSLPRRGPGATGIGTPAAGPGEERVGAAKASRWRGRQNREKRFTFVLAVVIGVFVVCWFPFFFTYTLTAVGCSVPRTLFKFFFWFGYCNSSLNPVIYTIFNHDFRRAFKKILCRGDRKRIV
Procedure, shortened: (§1)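 Lysates of LM(tk−) cells stably expressing human α2A, α2B or α2C receptors in 25 mM glycylglycine pH 7.6. Equilibrium competition against 0.5 nM [3H]rauwolscine, with 10 μM phentolamine defining nonspecific binding. Bound ligand separated by GF/B filtration.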

L-type calcium channel = target: T3, L-type calcium channel (Rattus norvegicus, UniProt P22002); experiment: Competition binding of [3H]nitrendipine to membrane fragments of rat cardiac muscle; details: PKi Ca
T3 construct: membrane fragments of rat cardiac muscle; from tissue; host or cells: rat cardiac muscle membranes

α2B receptor = target: T4, α2B receptor (Homo sapiens, UniProt P18089); experiment: Competition binding, [3H]rauwolscine, human α2B receptor; details: PKi alpha-2 2b
T4 construct: host or cells: LM(tk-) cells, line L-NGC-α2B
T4 sequence (P18089 1-450): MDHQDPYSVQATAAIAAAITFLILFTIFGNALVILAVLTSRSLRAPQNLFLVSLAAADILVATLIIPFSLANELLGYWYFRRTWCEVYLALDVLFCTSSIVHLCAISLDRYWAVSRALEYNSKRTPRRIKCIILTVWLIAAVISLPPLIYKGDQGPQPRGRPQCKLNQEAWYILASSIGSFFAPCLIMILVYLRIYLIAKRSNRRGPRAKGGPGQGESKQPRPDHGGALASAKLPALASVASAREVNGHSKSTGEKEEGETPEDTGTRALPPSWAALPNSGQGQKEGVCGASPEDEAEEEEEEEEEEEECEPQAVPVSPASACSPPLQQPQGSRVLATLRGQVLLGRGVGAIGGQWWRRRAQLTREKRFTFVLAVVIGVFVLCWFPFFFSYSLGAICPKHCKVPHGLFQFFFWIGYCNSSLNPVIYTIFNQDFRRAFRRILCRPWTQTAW
Procedure, shortened: as §1

T3 sequence (P22002 whole entry, other chains not shown, the tested form may be a part): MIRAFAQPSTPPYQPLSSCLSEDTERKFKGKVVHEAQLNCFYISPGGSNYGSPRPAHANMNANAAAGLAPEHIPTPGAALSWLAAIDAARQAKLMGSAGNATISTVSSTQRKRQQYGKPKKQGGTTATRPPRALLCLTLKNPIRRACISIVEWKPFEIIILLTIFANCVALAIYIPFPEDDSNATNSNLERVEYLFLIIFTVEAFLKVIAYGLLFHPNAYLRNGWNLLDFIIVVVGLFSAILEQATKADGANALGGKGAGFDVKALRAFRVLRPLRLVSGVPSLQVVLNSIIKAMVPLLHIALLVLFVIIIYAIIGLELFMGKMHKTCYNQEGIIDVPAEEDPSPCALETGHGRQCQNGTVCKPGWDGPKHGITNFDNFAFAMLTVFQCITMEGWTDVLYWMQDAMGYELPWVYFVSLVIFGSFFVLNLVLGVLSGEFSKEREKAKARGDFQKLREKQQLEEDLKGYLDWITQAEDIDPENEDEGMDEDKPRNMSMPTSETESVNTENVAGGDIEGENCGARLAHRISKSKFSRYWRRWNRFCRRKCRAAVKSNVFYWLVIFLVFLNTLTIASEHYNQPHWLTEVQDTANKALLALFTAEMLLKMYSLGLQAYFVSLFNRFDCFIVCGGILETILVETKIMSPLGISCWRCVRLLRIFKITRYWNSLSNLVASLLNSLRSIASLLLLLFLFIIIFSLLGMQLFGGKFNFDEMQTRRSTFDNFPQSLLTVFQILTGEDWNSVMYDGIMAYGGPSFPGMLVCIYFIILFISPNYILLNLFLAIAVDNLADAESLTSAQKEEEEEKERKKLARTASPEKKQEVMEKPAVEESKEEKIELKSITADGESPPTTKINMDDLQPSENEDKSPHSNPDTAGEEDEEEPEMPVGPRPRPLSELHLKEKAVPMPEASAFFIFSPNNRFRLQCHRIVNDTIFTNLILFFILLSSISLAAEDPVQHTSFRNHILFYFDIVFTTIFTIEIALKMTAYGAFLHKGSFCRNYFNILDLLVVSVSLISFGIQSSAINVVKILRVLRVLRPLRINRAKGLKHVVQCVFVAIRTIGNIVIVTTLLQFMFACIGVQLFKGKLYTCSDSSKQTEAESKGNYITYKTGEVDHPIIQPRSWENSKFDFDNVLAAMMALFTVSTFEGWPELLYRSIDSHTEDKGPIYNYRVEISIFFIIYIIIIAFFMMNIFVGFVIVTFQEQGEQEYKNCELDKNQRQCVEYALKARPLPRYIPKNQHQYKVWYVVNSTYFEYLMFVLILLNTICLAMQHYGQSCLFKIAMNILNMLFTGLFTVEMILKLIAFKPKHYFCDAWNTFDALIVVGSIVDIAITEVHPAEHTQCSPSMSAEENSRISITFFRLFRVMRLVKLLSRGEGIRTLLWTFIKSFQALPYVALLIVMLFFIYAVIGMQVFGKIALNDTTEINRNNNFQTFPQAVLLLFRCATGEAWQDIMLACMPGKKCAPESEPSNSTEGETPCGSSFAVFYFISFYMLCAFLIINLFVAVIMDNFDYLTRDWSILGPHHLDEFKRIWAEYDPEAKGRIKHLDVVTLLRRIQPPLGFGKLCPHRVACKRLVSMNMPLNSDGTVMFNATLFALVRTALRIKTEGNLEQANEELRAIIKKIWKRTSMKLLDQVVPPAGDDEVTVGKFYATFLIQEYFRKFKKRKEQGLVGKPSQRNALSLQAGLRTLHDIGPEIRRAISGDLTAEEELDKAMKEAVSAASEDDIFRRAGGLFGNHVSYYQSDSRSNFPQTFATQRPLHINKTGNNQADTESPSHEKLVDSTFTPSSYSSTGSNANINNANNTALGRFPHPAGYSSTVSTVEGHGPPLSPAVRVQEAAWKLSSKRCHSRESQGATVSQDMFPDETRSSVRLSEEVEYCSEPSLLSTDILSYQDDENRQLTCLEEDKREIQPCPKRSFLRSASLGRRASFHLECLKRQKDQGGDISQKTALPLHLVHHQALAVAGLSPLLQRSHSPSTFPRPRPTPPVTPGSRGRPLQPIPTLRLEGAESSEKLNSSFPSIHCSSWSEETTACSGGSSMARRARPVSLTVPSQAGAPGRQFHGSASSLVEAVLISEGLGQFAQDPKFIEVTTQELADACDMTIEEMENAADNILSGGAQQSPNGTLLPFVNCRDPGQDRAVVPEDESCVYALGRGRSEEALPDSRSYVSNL
T3 sequence (P54290 25-944 partner limits assumed, other chains not shown): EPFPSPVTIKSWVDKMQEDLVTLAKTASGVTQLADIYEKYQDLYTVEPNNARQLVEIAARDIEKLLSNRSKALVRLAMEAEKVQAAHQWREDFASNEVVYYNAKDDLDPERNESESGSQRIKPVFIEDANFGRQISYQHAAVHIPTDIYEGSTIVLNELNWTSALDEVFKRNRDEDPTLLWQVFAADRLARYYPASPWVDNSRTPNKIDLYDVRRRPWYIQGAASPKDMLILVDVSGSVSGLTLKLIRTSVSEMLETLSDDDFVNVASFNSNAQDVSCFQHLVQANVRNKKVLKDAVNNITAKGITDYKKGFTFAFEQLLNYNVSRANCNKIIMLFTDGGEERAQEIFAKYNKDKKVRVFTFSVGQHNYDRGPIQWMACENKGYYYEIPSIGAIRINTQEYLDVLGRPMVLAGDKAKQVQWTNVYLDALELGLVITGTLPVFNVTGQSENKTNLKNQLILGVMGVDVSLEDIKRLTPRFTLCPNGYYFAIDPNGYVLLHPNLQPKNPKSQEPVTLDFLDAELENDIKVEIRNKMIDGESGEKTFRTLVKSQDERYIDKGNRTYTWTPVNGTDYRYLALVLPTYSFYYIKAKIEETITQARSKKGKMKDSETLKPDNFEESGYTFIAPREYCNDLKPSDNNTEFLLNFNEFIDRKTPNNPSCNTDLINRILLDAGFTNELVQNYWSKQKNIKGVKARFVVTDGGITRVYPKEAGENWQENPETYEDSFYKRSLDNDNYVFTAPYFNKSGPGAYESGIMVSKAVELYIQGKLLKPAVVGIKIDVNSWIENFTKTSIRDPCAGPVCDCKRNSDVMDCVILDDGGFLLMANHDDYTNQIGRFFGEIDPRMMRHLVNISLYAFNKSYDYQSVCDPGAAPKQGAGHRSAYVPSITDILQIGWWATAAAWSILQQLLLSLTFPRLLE
T3 sequence (P54290 945-1091 partner limits assumed, other chains not shown): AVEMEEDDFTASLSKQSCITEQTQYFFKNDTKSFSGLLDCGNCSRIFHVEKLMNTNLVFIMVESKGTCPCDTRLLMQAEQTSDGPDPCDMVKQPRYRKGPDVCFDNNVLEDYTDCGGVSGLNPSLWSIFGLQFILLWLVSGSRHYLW

| SMILES | Ki [1] | Ki (α2A receptor) | Ki (L-type calcium channel) | Ki (α2B receptor) | melting point |
| --- | --- | --- | --- | --- | --- |
| COC(=O)C1(c2ccccc2)CCN(CCCNC(=O)C2=C(CCCCN)NC(C)=C(C(N)=O)C2c2ccc([N+](=O)[O-])cc2)CC1 (centres unmarked) [Example 177, 2-(4-Aminobutyl)-5-carboxamido-1,4-dihydro-3-{N-[3-(4-methoxycarbonyl-4-phenylpiperidin-1-yl)propyl]}carboxamido-6-methyl-4-(4-nitrophenyl)pyridine] | 0.759 µM | 1.66 µM | 93.3 µM | 2.88 µM | 81 to 84 °C |
| CCC1=C(C(=O)NC)C(c2ccc([N+](=O)[O-])cc2)C(C(=O)NCCCN2CCC(c3ccccc3)(c3ccccc3)CC2)=C(COCCN)N1 (centres unmarked) [Example 225, 2-((2-Aminoethyl)oxy)methyl-6-ethyl-1,4-dihydro-5-N-methylcarboxamido-4-(4-nitro)phenyl-3-(3-(N-(4,4-diphenylpiperidin-1-yl)propyl))carboxamidopyridine] | 0.501 µM | 2.04 µM | 2.57 µM | 2.51 µM | 115 °C (dec.) |
| CC1=C(C(N)=O)C(c2ccc([N+](=O)[O-])cc2)C(C(=O)NCCCN2CCC(C(=O)O)(c3ccccc3)CC2)=C(C)N1 (centres unmarked) [Example 210, 5-Carboxamido-3-{N-[3-(4-carboxy-4-phenylpiperidin-1-yl)propyl]}carboxamido-1,4-dihydro-2,6-dimethyl-4-(4-nitrophenyl)pyridine] | 44.7 µM | 11 µM | 0.933 µM | 23.4 µM | 208 to 210 °C |
| COC(=O)C1=C(C)NC(CCCCN)=C(C(=O)NCCCN2CCC(c3ccccc3)(c3ccccc3)CC2)C1c1ccc([N+](=O)[O-])cc1 (centres unmarked) [Example 170, 2-(4-Aminobutyl)-1,4-dihydro-5-methoxycarbonyl-6-methyl-4-(4-nitrophenyl)-3-{N-[3-(4,4-diphenylpiperidin-1-yl)propyl]}carboxamidopyridine] | 0.105 µM | 6.17 µM | 2.4 µM | 8.71 µM | 89 to 93 °C |
